From PubChem BioAssay (NCI) come the findings set out here.

Some test systems named below: MALME-3M melanoma; KM12 colon; HCT-116 colon; HT29 colon; SNB-19 CNS; ACHN renal; SF-295 CNS; NCI-H460 lung; SF-539 CNS; IGROV1 ovarian.
Holding throughout (assay): inhibition of tumour cell growth, NCI panel, 48 h

Values joined by “and” are separate entries in the source; they are usually repeats but may differ in a detail not shown here. Equal entries are not always repeated.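 Cultured in 96-well plates, cells were exposed to test compound for 48 hours across five concentrations. Here, GI50 denotes the concentration required for 50% inhibition of growth. TGI: total growth inhibition.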

Consider `O=[N+]([O-])/C=C/c1c(Cl)cccc1Cl`, for which the TGI with MALME-3M melanoma turned out to be 9.81 µM; in the experiment with KM12 colon, 5.28 µM; with HCT-116 colon it was 14 µM; with HT29 colon, 26 µM; with SNB-19 CNS, 12.1 µM; with ACHN renal it was 7.49 µM. Also, the TGI in the experiment on SF-295 CNS was found to be 14.5 µM; with NCI-H460 lung, 21 µM; in the experiment with SF-539 CNS it was 5.12 µM; in the experiment with IGROV1 ovarian it was 10.3 µM.

Take `O=S(=O)(NC1CCCCC1)c1ccc2c(c1)OCCOCCOCCOCCO2`: the TGI in the experiment with MALME-3M melanoma, in the experiment on KM12 colon, in the experiment on HCT-116 colon, in the experiment on HT29 colon, in the experiment with SNB-19 CNS and in the experiment on ACHN renal was greater than 100 µM each time. Moreover, the TGI with SF-295 CNS, in the experiment on NCI-H460 lung, in the experiment with SF-539 CNS and in the experiment on IGROV1 ovarian was greater than 100 µM in each case.

Regarding `Cc1cc2c(c(C(N)=O)c1C)-c1cccc(F)c1C2=O`, the TGI in the experiment with MALME-3M melanoma, in the experiment with KM12 colon, with HCT-116 colon, in the experiment with HT29 colon, in the experiment on SNB-19 CNS and in the experiment with ACHN renal was greater than 100 µM each time. Also, the TGI with SF-295 CNS, with NCI-H460 lung, with SF-539 CNS and with IGROV1 ovarian was greater than 100 µM in each case.

For `Cc1ccc(/C=C/c2c(C(=O)/C=C/c3ccccc3)c(C)nc3ccccc23)cc1`, the GI50 with MALME-3M melanoma is 1.74 µM; in the experiment with KM12 colon, 1.72 µM; with HCT-116 colon, 0.762 µM; in the experiment on HT29 colon, 1.63 µM; with SNB-19 CNS, 1.66 µM; in the experiment on ACHN renal, 1.59 µM. The GI50 was 2.2 µM in the experiment on SF-295 CNS, 1.37 µM in the experiment on NCI-H460 lung, 1.74 µM in the experiment on SF-539 CNS and 1.41 µM in the experiment on IGROV1 ovarian. For the same molecule, the TGI amounted to 3.18 µM in the experiment with MALME-3M melanoma; 3.36 µM in the experiment with KM12 colon; 2.2 µM in the experiment on HCT-116 colon; 9.5 µM in the experiment on HT29 colon; 3.08 µM in the experiment with SNB-19 CNS; 2.93 µM in the experiment on ACHN renal. Besides, the TGI is 5.02 µM with SF-295 CNS, 2.99 µM in the experiment on NCI-H460 lung, 3.19 µM in the experiment on SF-539 CNS and 4.48 µM with IGROV1 ovarian.

Take `CN(C)C(=O)Nc1nc2cc(Cl)c(Cl)cc2[nH]1`: the GI50 was 3.22 µM with MALME-3M melanoma; 0.404 µM in the experiment on KM12 colon; 0.463 µM in the experiment with HCT-116 colon; 0.393 µM in the experiment with HT29 colon; 11.6 µM with SNB-19 CNS; 3.11 µM in the experiment with ACHN renal. The GI50 was 0.603 µM in the experiment with SF-295 CNS, 0.44 µM in the experiment on NCI-H460 lung, 0.537 µM with SF-539 CNS and 1.15 µM with IGROV1 ovarian. In addition, the TGI was 87.3 µM in the experiment on MALME-3M melanoma; greater than 35.7 µM in the experiment on KM12 colon; greater than 35 µM with HCT-116 colon; greater than 32.5 µM with HT29 colon; greater than 100 µM in the experiment on SNB-19 CNS; greater than 100 µM with ACHN renal. In addition, the TGI in the experiment on SF-295 CNS was 39.1 µM; with NCI-H460 lung, 30 µM; in the experiment with SF-539 CNS, 6.05 µM; with IGROV1 ovarian, greater than 100 µM.

For the molecule `CCO/C=C1\N=C(c2ccc(Cl)c(Cl)c2)OC1=O`, the TGI in the experiment with MALME-3M melanoma, in the experiment on KM12 colon, with HT29 colon, in the experiment on SNB-19 CNS, in the experiment with ACHN renal and in the experiment on SF-295 CNS was greater than 100 µM throughout. In addition, the TGI in the experiment with NCI-H460 lung, in the experiment with SF-539 CNS and in the experiment on IGROV1 ovarian was greater than 100 µM in each case.

Turning to `C#C[C@]1(O)CC[C@H]2[C@@H]3CC=C4c5sc(Nc6cc(F)ccc6F)nc5CC[C@]4(C)[C@H]3CC[C@@]21C`, the GI50 is 1.4 µM with MALME-3M melanoma; 1.97 µM in the experiment with KM12 colon; 2.24 µM in the experiment on HT29 colon; 1.6 µM in the experiment on SNB-19 CNS; 1.44 µM in the experiment with ACHN renal; 0.224 µM in the experiment on SF-295 CNS. Further, the GI50 is 1.95 µM with NCI-H460 lung, 0.389 µM in the experiment with SF-539 CNS and 1.68 µM in the experiment with IGROV1 ovarian. In addition, the TGI in the experiment on MALME-3M melanoma turned out to be 2.97 µM; in the experiment on KM12 colon, 4.34 µM; in the experiment on HT29 colon it was 8.5 µM; in the experiment on SNB-19 CNS it was 3.23 µM; in the experiment with ACHN renal it was 2.9 µM; in the experiment with SF-295 CNS, 0.592 µM. For the same molecule, the values for the TGI in the experiment with NCI-H460 lung, in the experiment with SF-539 CNS and in the experiment with IGROV1 ovarian were 4.14 µM, 1.74 µM and 3.73 µM, respectively.

In the case of `O=C(O)C[C@H](O)C[C@H](O)/C=C/c1c(C2CC2)nc2ccccc2c1-c1ccc(F)cc1`, the GI50 with MALME-3M melanoma was greater than 100 µM; in the experiment on KM12 colon, 34.2 µM and 24.8 µM; in the experiment with HCT-116 colon it was 5.8 µM and 1.25 µM; in the experiment with HT29 colon, 62.2 µM and 8.24 µM; in the experiment with SF-295 CNS, 2.1 µM and 0.526 µM; with NCI-H460 lung, 21.2 µM and 4.92 µM. The GI50 in the experiment on SF-539 CNS is 43.7 µM and 5.46 µM; with IGROV1 ovarian, 5.25 µM and 3.6 µM. In addition, the TGI in the experiment with MALME-3M melanoma, with KM12 colon, in the experiment with HCT-116 colon, in the experiment on HT29 colon, with SNB-19 CNS and in the experiment with SF-295 CNS was greater than 100 µM each time. Moreover, the TGI with NCI-H460 lung was greater than 100 µM; in the experiment on SF-539 CNS, greater than 100 µM; in the experiment with IGROV1 ovarian, 43.5 µM and > 100 µM.

Consider `N#C/C(=C1\SCC(=O)N1c1ccccc1)c1nc2ccccc2[nH]1`, for which the TGI with MALME-3M melanoma, with HCT-116 colon, in the experiment on HT29 colon, in the experiment on SNB-19 CNS, with ACHN renal and in the experiment on SF-295 CNS was greater than 100 µM in each case. Also, the TGI in the experiment on NCI-H460 lung, with SF-539 CNS and with IGROV1 ovarian was greater than 100 µM each time.

`CCOC(=O)NC(=O)c1cn(CCN2CCN(C(=O)CNC(=O)CNC(=O)Cn3cc(C(=O)NC(=O)OCC)c(=O)[nH]c3=O)CC2)c(=O)[nH]c1=O`: the TGI in the experiment on MALME-3M melanoma, with KM12 colon, in the experiment with HCT-116 colon, in the experiment on HT29 colon, in the experiment with SNB-19 CNS and with ACHN renal was greater than 100 µM throughout. Moreover, the TGI in the experiment on SF-295 CNS, in the experiment on NCI-H460 lung and in the experiment with SF-539 CNS was greater than 100 µM in each case.
